Experimental data reported in patent publication US11266650B2, “Pharmaceutical composition for preventing and treating nonalcoholic steatohepatitis, hepatic fibrosis, and liver cirrhosis, comprising adenosine derivatives” (FUTURE MEDICINE CO., LTD., priority 2016, dated 2022).
“And” between values parts separate entries of the source, which are not always exact repeats. Equal entries are not always repeated.

Legend:
[1] = Kinetic solubility; type: physicochemical; conditions: kinetic from dmso stock
[2] = Equilibrium solubility; type: physicochemical; conditions: thermodynamic from solid
[3] = Log P; type: physicochemical
[4] = pKa; type: physicochemical
[5] = PAMPA; type: in vitro ADME
[6] = Plasma stability, rat plasma; type: in vitro ADME
Experimental: (§1) Plasma stability and protein binding were measured using rat and human plasma.

[7] = Plasma stability, human plasma; type: in vitro ADME
Experimental: as §1

[8] = Plasma protein binding, rat plasma; type: in vitro ADME
Experimental: as §1

[9] = Plasma protein binding, human plasma; type: in vitro ADME
Experimental: as §1

[10] = Pharmacokinetic test in SD male rats (Experimental Examples 11, 12, 15); type: in vivo; conditions: plasma, rat; for Vd: read-out: Vss; for bioavailability: read-out: Ft (bioavailability)
Experimental: (§2) Intravenous administration was performed through a tube inserted into the femoral vein, and oral administration was performed using oral gavage.
(§3) After the administration, the experimental animals' blood was taken at predetermined time intervals for 24 hours. Then, the blood was centrifuged to separate plasma. The plasma samples were pretreated with a suitable organic solvent, and then the concentration of the plasma samples was analyzed by LC-MS/MS. […] The results of noncompartmental pharmacokinetic parameters calculated from the blood concentration-time data are shown in Tables 9 through 13. In FIGS. 12 through 16, I.V. represents an intravenous administration group, P.O. represents an oral administration group, and the definition of each parameter in Tables 9 through 13 is shown in Table 14.

[11] = Pharmacokinetic test in ICR male mice (Experimental Example 13); type: in vivo; conditions: mouse, plasma, po, P.O., 10 mg/kg
Experimental: as §2, §3

[12] = Pharmacokinetic test in dogs (Experimental Example 14); type: in vivo; conditions: dog, plasma; for bioavailability: read-out: Ft (bioavailability)
Experimental: as §2, §3

[13] = test system: each cell line; assay: Cytotoxicity, Cyto X cell viability assay kit; type: cell-based
[14] = target: hERG channel protein (Homo sapiens, UniProt Q12809); assay: hERG ligand binding assay (fluorescence polarization)
[15] = test system: histidine-requiring Salmonella (strains TA98, TA100, TA1535 and TA1537) and tryptophan-requiring Escherichia coli (strain WP2uvrA (pKM101)); type: cell-based
From the text: In addition, for each strain, the number of back-mutant colonies in the positive control group certainly exceeded twice the number of back-mutant colonies in the negative control group.

[16] = test system: rats; conditions: rat, in vivo
[17] = test system: rats; assay: Single-dose toxicity in rats; conditions: rat, in vivo
[18] = test system: ICR mice; assay: Toxicity assay, intraperitoneal injection, mice; conditions: i.p. 20, 10 and 1 mg/kg
Experimental: (§4) The compounds synthesized in the examples of the present invention were assayed for cytotoxicity in animals.

[19] = test system: SPF Sprague Dawley rats; assay: Toxicity assay, intraperitoneal injection, rats; conditions: i.p. 20, 10 and 1 mg/kg
Experimental: as §4

[20] = po, 5 mg/kg, P.O., 5 mg/kg (Exp. 11-2)
[21] = po, 10 mg/kg, 10 mg/kg (Exp. 12-2)
[22] = po, 10 mg/kg, oral 10 mg/kg in 0.5% MC (Exp. 15-1)
[23] = po, 10 mg/kg, oral 10 mg/kg in Vehicle: 5% DMSO, 40% PEG400 and 55% DW (Exp. 15-2)
[24] = po, 10 mg/kg, G2, PO, dissolved in a solvent
[25] = po, 10 mg/kg, G3, PO, powder state in a capsule

hERG channel protein, sequence (Q12809 whole entry): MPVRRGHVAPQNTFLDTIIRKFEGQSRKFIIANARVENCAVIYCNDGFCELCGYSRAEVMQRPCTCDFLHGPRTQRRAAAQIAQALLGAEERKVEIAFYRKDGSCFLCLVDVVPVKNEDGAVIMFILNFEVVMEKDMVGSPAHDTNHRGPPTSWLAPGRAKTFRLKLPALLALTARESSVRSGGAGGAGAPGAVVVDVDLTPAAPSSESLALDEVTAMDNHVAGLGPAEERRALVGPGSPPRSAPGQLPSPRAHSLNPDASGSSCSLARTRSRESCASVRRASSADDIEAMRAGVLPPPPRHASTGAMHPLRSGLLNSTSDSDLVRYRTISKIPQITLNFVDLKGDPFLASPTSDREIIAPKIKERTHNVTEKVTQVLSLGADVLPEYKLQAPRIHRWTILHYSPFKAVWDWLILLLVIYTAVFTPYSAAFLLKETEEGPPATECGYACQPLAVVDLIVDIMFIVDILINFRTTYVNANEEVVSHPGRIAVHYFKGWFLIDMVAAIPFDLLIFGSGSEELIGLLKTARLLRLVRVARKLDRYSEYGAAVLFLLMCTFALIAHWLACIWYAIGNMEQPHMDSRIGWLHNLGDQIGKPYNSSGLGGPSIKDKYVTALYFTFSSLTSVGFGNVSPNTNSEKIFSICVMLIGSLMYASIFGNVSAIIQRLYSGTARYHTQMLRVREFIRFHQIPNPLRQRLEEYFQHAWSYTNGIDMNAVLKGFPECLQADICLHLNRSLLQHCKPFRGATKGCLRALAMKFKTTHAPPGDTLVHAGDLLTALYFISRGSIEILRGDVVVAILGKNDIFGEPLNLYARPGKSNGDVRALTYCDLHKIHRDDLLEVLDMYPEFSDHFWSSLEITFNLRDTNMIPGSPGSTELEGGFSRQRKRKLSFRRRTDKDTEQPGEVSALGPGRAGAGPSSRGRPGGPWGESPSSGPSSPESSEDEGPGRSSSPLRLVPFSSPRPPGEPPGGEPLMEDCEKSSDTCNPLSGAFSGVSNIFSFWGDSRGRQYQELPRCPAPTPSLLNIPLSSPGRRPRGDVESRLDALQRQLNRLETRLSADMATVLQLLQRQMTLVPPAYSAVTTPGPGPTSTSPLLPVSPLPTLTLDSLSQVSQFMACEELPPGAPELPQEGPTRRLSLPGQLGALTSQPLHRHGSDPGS

SMILES: O[C@@H]1[C@H](O)CS[C@H]1n1cnc2c(NCc3cccc(Cl)c3)nc(Cl)nc21 [Example 2, (2R,3R,4S)-2-(2-Chloro-6-(3-chlorobenzylamino)-9H-purin-9-yl)tetrahydrothiophen-3,4-diol]
- solubility kinetic [1]: 361 µM and 149 µg/mL
- solubility thermodynamic [2]: 6.7 µM and 2.76 µg/mL
- logP [3]: 3.18
- pKa [4]: 11.3
- PAMPA [5]: −4.49
- Plasma stability [6]: > 99.9%
- Plasma stability [7]: 98.9%
- fraction unbound [8]: 0.098
- fraction unbound [9]: 0.013
- clearance ([10]; iv, I.V., 5 mg/kg): 6.05 mL/min/kg
- Vd ([10]; iv, I.V., 5 mg/kg): 0.881 ± 0.203 L/kg
- bioavailability ([10]; po, P.O., 5 mg/kg): 49.7%
- clearance ([10]; IV, 2 mg/kg): 6.08 mL/min/kg
- Vd ([10]; IV, 2 mg/kg): 2.27 ± 0.863 L/kg
- bioavailability ([10]; PO, 10 mg/kg (Exp. 12-2)): > 99.9%
- AUC(0-inf) ([10]; iv, 2 mg/kg): 5490 ± 300 ng·h/mL
- AUC(0-t) ([10]; iv, 2 mg/kg): 5200 ± 548 ng·h/mL
- half-life ([10]; iv, 2 mg/kg, 2 mg/kg (Exp. 12-1)): 6 ± 2.98 h
- AUC(0-inf) ([10]; iv, 5 mg/kg, I.V.): 14100 ± 2590 ng·h/mL
- AUC(0-t) ([10]; iv, 5 mg/kg, I.V.): 14000 ± 2550 ng·h/mL
- half-life ([10]; iv, 5 mg/kg, I.V., 5 mg/kg (Exp. 11-1)): 3.6 ± 0.589 h
- AUC(0-inf) ([10]; po, 5 mg/kg, P.O.): 7040 ± 551 ng·h/mL
- AUC(0-t) ([10]; po, 5 mg/kg, P.O.): 6980 ± 584 ng·h/mL
- Cmax [10, 20]: 1450 ± 255 ng/mL
- Tmax [10, 20]: 1.33 ± 0.577 h
- half-life [10, 20]: 3.26 ± 0.945 h
- AUC(0-inf) [10, 21]: 26700 ± 75 ng·h/mL
- AUC(0-t) [10, 21]: 26500 ± 5880 ng·h/mL
- Cmax [10, 21]: 2710 ± 183 ng/mL
- Tmax [10, 21]: 2.42 ± 3.13 h
- half-life [10, 21]: 3.34 ± 0.075 h
- AUC(0-inf) [10, 22]: 41400 ± 26000 ng·h/mL
- AUC(0-t) [10, 22]: 40100 ± 26800 ng·h/mL
- Cmax [10, 22]: 5720 ± 6110 ng/mL
- Tmax [10, 22]: 1.33 ± 0.58 h
- half-life [10, 22]: 4.56 ± 2.8 h
- AUC(0-inf) [10, 23]: 26700 ± 75 ng·h/mL
- AUC(0-t) [10, 23]: 26500 ± 5880 ng·h/mL
- Cmax [10, 23]: 2710 ± 183 ng/mL
- Tmax [10, 23]: 2.42 ± 3.13 h
- half-life [10, 23]: 3.34 ± 0.075 h
- AUC(0-inf) [11]: 102000 ± 13500 ng·h/mL
- AUC(0-t) [11]: 100000 ± 13200 ng·h/mL
- Cmax [11]: 8570 ± 1520 ng/mL
- Tmax [11]: 6.13 ± 3.75 h
- half-life [11]: 3.61 ± 0.3 h
- AUC(0-inf) ([12]; iv, 2 mg/kg, G1, IV): 1070 ± 620 ng·h/mL
- AUC(0-t) ([12]; iv, 2 mg/kg, G1, IV): 948 ± 464 ng·h/mL
- half-life ([12]; iv, 2 mg/kg, G1, IV): 2.17 ± 0.867 h
- bioavailability ([12]; po, 10 mg/kg, G2, PO, 10 mg/kg, dissolved in a solvent): 82%
- AUC(0-inf) [12, 24]: 3990 ± 1090 ng·h/mL
- AUC(0-t) [12, 24]: 3880 ± 1030 ng·h/mL
- Cmax [12, 24]: 467 ± 73 ng/mL
- Tmax [12, 24]: 1.67 ± 0.58 h
- half-life [12, 24]: 4.21 ± 1.41 h
- bioavailability ([12]; po, 10 mg/kg, G3, PO, 10 mg/kg, powder state in a capsule): > 99.9%
- AUC(0-inf) [12, 25]: 6350 ± 830 ng·h/mL
- AUC(0-t) [12, 25]: 5640 ± 840 ng·h/mL
- Cmax [12, 25]: 1140 ± 230 ng/mL
- Tmax [12, 25]: 2 h
- half-life [12, 25]: 5.53 ± 3.06 h
- clearance ([12]; G1, IV, 2 mg/kg): 37.8 mL/min/kg
- Vd ([12]; G1, IV, 2 mg/kg, read-out: Vss): 6.02 ± 0.79 L/kg
- Toxicity, Cytotoxicity evaluation [13]: Not detected
- IC50 ([13]; each cell line): ≥ 10 µM
- Toxicity, hERG ligand binding assay evaluation [14]: Not detected
- inhibition rate, hERG ligand binding ([14]; 10 μM of the compound): ≤ 50%
- Toxicity, Genotoxicity evaluation [15]: Not detected
- number of back-mutant colonies vs negative control group ([15]; all doses of each strain, with and without metabolic activation): did not exceed twice the number of back-mutant colonies of the negative control group
- death after single dose [16]: no animals died
- Toxicity, Single-dose toxicity evaluation [17]: Not detected
- weight gain or feed intake vs control group [18]: No difference in weight gain or feed intake
- death ([18]; 24 hrs observation): No death was observed
- weight gain or feed intake vs control group [19]: No difference in weight gain or feed intake
- death ([19]; 24 hrs observation): No death was observed
